Results reported in patent US5354754A, “Pyrrolopyrimidines, their production and use” (Takeda Chemical Industries, Ltd., priority 1989, dated 1994).
Converted amounts (≈) assume the structure as drawn.

Legend:
[1] = system: Human epidermoid carcinoma KB cells; assay: cell growth inhibiting effect on KB cells (MTT, 72 hours); assay type: cell-based; details: 37° C., 5% CO2, MTT, absorbance at 590 nm
Experimental: The cell growth inhibiting effect (IC50) on KB cells of the compounds obtained in the following Examples was measured by the following method. (Hereinafter, % means weight %.)
Human epidermoid carcinoma KB cells (1×10^4 /ml) prepared by a conventional method were inoculated in a volume of 0.1 ml for each hole of the 96-microwell plate, and cultured at 37° C. for 24 hours without agitation in an atmosphere of 5% CO2. A 10% solution of one compound obtained by Example in 10% MEM (minimal essential medium, Nissui Pharmaceutical Co. Ltd, Japan) was added thereto, and the cells were cultured again at 37° C. for 72 hours without agitation in an atmosphere of 5% CO2. The culture was removed by using a micropipet, and another 10% solution 0.1 ml of MTT [3-(4,5-dimethylthiazol-2-yl)-2,5-diphenyltetrazolium bromide] (Dojin Laboratories, Japan) in 10% MEM (1.0 mg/ml) was added thereto. The cells were cultured at 37° C. for 4 hours. A 10% SDS [sodium dodecylsulfate](Wako Pure Chimicals, Japan) solution (0.1 ml) was further added, and the cells were cultured at 37° C. for 24 hours. The absorbance at 590 nm was measured, and the concentration of a drug needed for decreasing the number of cells in non-treated control group to a degree of 50% was determined as IC50 value of the compound.

[2] = system: dihydrofolic acid reductase; details: in words, prior art; cited from earlier work
[3] = system: glycinamide ribonucleotide transformylase; details: in words, Journal of Medicinal Chemistry, 28, 914(1985); cited from earlier work

| Structure (SMILES) | IC50 [1] [ng/mL] | inhibition of dihydrofolic acid reductase [2] | inhibition of glycinamide ribonucleotide transformylase [3] |
| --- | --- | --- | --- |
| Nc1nc(N)c2c(CCCc3ccc(C(=O)N[C@@H](CCC(=O)O)C(=O)O)s3)c[nH]c2n1 [Example 3, N-[5-(3-(2,4-diamino-7H-pyrrolo[2,3-d]pyrimidin-5-yl)propyl)-2-thenoyl]-L-glutamic acid] | 0.43 (≈ 0.963 nM) |  |  |
| CN(Cc1cnc2nc(N)nc(N)c2n1)c1ccc(C(=O)N[C@@H](CCC(=O)O)C(=O)O)cc1 [methotrexate] |  | inhibit the reduction from dihydrofolic acid to tetrahydrofolic acid by coupling strongly with the dominant enzyme in the second step |  |
| Nc1nc2c(c(=O)[nH]1)C[C@@H](CCc1ccc(C(=O)N[C@@H](CCC(=O)O)C(=O)O)cc1)CN2 [DDATHF] |  | does not inhibit dihydrofolic acid reductase | main mechanism of which consists in inhibition of glycinamide ribonucleotide transformylase |
